From US20100003217A1, “Compounds and Pharmaceutical Compositions for the Treatment of Viral Infections” (priority 2008, published 2010)
Values joined by “and” are separate entries in the source; they are usually repeats but may differ in a detail not shown here. Equal values may be shown once.

Columns and labels:
[1] = Metabolite profile in rat urine; type: in vivo, male Sprague-Dawley rats; conditions: for % AD (percent of administered dose) / % HPLC (percent of HPLC peak area in the sample extract): group 1C (IV dose) pooled urine; for % of total urinary excretion / Total % AD: group 1C (IV dose) urine; for Total % AD: total of all collections
Description: Pooled urine samples were prepared for Groups 1C and 2C by mixing a fixed percent of the total volume for all four animals from the selected time points. For Group 1C, samples of the 1-, 2-, 6-, and 24-h collection intervals were pooled. For Group 2C, a pool of samples from all four animals was prepared for the 24 h collection intervals only. For 1-, 2-, and 6 h collection intervals, a urine sample of a single animal of Group 2A or 2B was used for analysis. All samples were brought to room temperature and vortexed briefly. The samples were diluted as necessary (2- to 20-fold) with appropriate aqueous mobile phase for the selected HPLC method. The pooled and diluted samples from the 24 h collection interval were centrifuged at 2040×g for 10 minutes. All other samples were analyzed without centrifugation. HPLC method 1 was used for HPLC profiling. Selected samples were analyzed by HPLC method 2 for comparison with the metabolite profile generated by microsomal and hepatocyte incubations (Examples 14 and 15) and with the metabolite profile of liver extracts.
Percent of the administered dose (% AD) for parent drug and each metabolite at each collection period=(% of the total radioactivity in the sample attributed to the metabolite)*(total radioactivity expressed as % of the administered dose, recovered during the corresponding collection period).
HPLC analyses of pooled urine samples of all time points were conducted for Group 1C. Metabolites R1, R2, R3, R4, R5, R6, R7 and R8 were characterized based on retention time.
For the PO dose group, a pooled urine sample from the 24-h collection time was analyzed. For 1-, 2-, and 6-h collection times, the majority of the samples had been used for radioanalysis. The remaining samples were insufficient for proportional pooling. Therefore, single animal samples of […] groups were used for HPLC profiling. Metabolites R^1, R^2, R^3, R^4, R^5, R^6, R^7 and R^8 were characterized based on retention time.
Table 50 contains data from single animal samples and pooled samples. To estimate overall distribution of urinary metabolites, it was assumed that the profile from a single animal is reflective of the overall average metabolite profile. Therefore, HPLC distribution data from single animals was used to calculate the percentage of administered dose excreted as various metabolites during the 1-, 2-, and 6-h collection intervals. Metabolites R1, R2, R3, R4, R5, R6, R7 and R8 were characterized based on retention time.

[2] = Rat plasma pharmacokinetics of total radioactivity after [^14C]-Compound 1; type: in vivo, male Sprague-Dawley rats; conditions: for Plasma total radioactivity concentration, Mean: group mean; for Plasma total radioactivity concentration: individual rats; for AUC0-24 of plasma total radioactivity: from average concentrations
Description: A preliminary rat metabolism study was conducted with radiolabeled Compound 1. The compound was labeled with [^14C] in the C-8 position of the guanine moiety. The objectives of the study were to determine, 1) the plasma pharmacokinetics of total radioactivity, 2) the time-course of total radioactivity and the amount of 2′-C-methyl guanosine-5′-TP in liver, 3) the major route of excretion, and 4) the metabolic profile in excreta, liver, and plasma.
Isotopically diluted [^14C]-Compound 1 was administered intravenously to male Sprague-Dawley rats at 50 mg/kg or by oral gavage at 100 mg/kg.
The plasma concentration-time data for total radioactivity was analyzed using Microsoft® Office Excel 2003 to obtain the area under the concentration-time curve (AUC). AUC0-24 (area under the concentration-time curve from 0 to 24 h after dosing) was calculated using the linear trapezoidal rule and nominal sampling times. For the IV dose group, concentration at time zero was extrapolated from the concentration data for the first two time points. The maximum (peak) plasma concentrations (Cmax) and the time to peak concentrations (tmax) were the observed values. Descriptive statistics were prepared in Excel.
Radioanalyses of plasma samples were conducted. The plasma concentration data for total radioactivity expressed as μg equivalents/mL are summarized below: […]

## CC(C)(CO)C(=O)SCCOP(N)(=O)OC[C@H]1O[C@@H](n2cnc3c(=O)[nH]c(N)nc32)[C@](C)(O)[C@@H]1O (single isomer, unassigned; diastereomer 2) [Compd 3 Diastereomer 2]
[1]; 1 h collection
  % AD (percent of administered dose): 0.23 % AD
  % HPLC (percent of HPLC peak area in the sample extract): 1.00%
[1]; 2 h collection
  % AD (percent of administered dose): 0.14 % AD
  % HPLC (percent of HPLC peak area in the sample extract): 2.69%
[1]; 6 h collection
  % AD (percent of administered dose): 0.03 % AD
  % HPLC (percent of HPLC peak area in the sample extract): 1.19%
[1]
  % of total urinary excretion: 0.84%
  Total % AD: 0.39 % AD

## CC(C)(CO)C(=O)SCCOP(N)(=O)OC[C@H]1O[C@@H](n2cnc3c(=O)[nH]c(N)nc32)[C@](C)(O)[C@@H]1O (single isomer, unassigned; diastereomer 1) [Compd 3 Diastereomer 1]
[1]; 1 h collection
  % AD (percent of administered dose): 0.05 % AD
  % HPLC (percent of HPLC peak area in the sample extract): 0.24%
[1]; 2 h collection
  % AD (percent of administered dose): 0.05 % AD
  % HPLC (percent of HPLC peak area in the sample extract): 1.01%
[1]; 6 h collection
  % AD (percent of administered dose): 0.01 % AD
  % HPLC (percent of HPLC peak area in the sample extract): 0.37%
[1]
  % of total urinary excretion: 0.25%
  Total % AD: 0.12 % AD

## CC(C)(CO)C(=O)SCCOP(=O)(NCc1ccccc1)OC[C@H]1O[C@@H](n2cnc3c(=O)[nH]c(N)nc32)[C@](C)(O)[C@@H]1O (stereo partly shown) [[^14C] Compound 1]
[2]; IV 50 mg/kg, 0 h (pre-dose)
  Plasma total radioactivity concentration, Mean: 0.000 μg Equivalents/mL
[2]; IV 50 mg/kg, 0.083 h
  Plasma total radioactivity concentration, Mean: 43.692 μg Equivalents/mL
[2]; IV 50 mg/kg, 0.25 h
  Plasma total radioactivity concentration, Mean: 9.195 μg Equivalents/mL
[2]; IV 50 mg/kg, 0.5 h
  Plasma total radioactivity concentration, Mean: 4.311 μg Equivalents/mL
[2]; IV 50 mg/kg, 0.75 h
  Plasma total radioactivity concentration, Mean: 1.835 μg Equivalents/mL
[2]; IV 50 mg/kg, 1 h
  Plasma total radioactivity concentration, Mean: 1.399 μg Equivalents/mL
[2]; IV 50 mg/kg, 2 h
  Plasma total radioactivity concentration, Mean: 2.175 μg Equivalents/mL
[2]; IV 50 mg/kg, 4 h
  Plasma total radioactivity concentration, Mean: 0.799 μg Equivalents/mL
[2]; IV 50 mg/kg, 6 h
  Plasma total radioactivity concentration, Mean: 2.652 μg Equivalents/mL
[2]; IV 50 mg/kg, 10 h
  Plasma total radioactivity concentration, Mean: 0.605 μg Equivalents/mL
[2]; IV 50 mg/kg, 24 h
  Plasma total radioactivity concentration, Mean: 0.570 μg Equivalents/mL
[2]; IV 50 mg/kg, Group 1A, 0.25 h, 50 mg/kg
  Plasma total radioactivity concentration: 10.883 μg Equivalents/mL and 9.006 μg Equivalents/mL and 7.913 μg Equivalents/mL and 8.978 μg Equivalents/mL
[2]; IV 50 mg/kg, Group 1A, 1 h, 50 mg/kg
  Plasma total radioactivity concentration: 1.371 μg Equivalents/mL and 1.358 μg Equivalents/mL and 1.600 μg Equivalents/mL and 1.267 μg Equivalents/mL
[2]; IV 50 mg/kg, Group 1A, 2 h, 50 mg/kg
  Plasma total radioactivity concentration: 2.202 μg Equivalents/mL and 1.861 μg Equivalents/mL and 2.545 μg Equivalents/mL and 2.092 μg Equivalents/mL
[2]; IV 50 mg/kg, Group 1B, 0 h (pre-dose)
  Plasma total radioactivity concentration: 0.000 μg Equivalents/mL
[2]; IV 50 mg/kg, Group 1B, 0.75 h, 50 mg/kg
  Plasma total radioactivity concentration: 1.576 μg Equivalents/mL and 1.600 μg Equivalents/mL and 1.710 μg Equivalents/mL and 2.454 μg Equivalents/mL
[2]; IV 50 mg/kg, Group 1B, 4 h, 50 mg/kg
  Plasma total radioactivity concentration: 0.755 μg Equivalents/mL and 0.713 μg Equivalents/mL and 0.938 μg Equivalents/mL and 0.790 μg Equivalents/mL
[2]; IV 50 mg/kg, Group 1B, 6 h, 50 mg/kg
  Plasma total radioactivity concentration: 2.376 μg Equivalents/mL and 2.233 μg Equivalents/mL and 2.160 μg Equivalents/mL and 3.837 μg Equivalents/mL
[2]; IV 50 mg/kg, Group 1C, 0.083 h, 50 mg/kg
  Plasma total radioactivity concentration: 50.653 μg Equivalents/mL and 45.178 μg Equivalents/mL and 35.246 μg Equivalents/mL and 37.600 μg Equivalents/mL
[2]; IV 50 mg/kg, Group 1C, 0.5 h, 50 mg/kg
  Plasma total radioactivity concentration: 4.824 μg Equivalents/mL and 4.036 μg Equivalents/mL and 4.072 μg Equivalents/mL and 3.857 μg Equivalents/mL
[2]; IV 50 mg/kg, Group 1C, 10 h, 50 mg/kg
  Plasma total radioactivity concentration: 0.566 μg Equivalents/mL and 0.675 μg Equivalents/mL and 0.573 μg Equivalents/mL and 0.562 μg Equivalents/mL
[2]; IV 50 mg/kg, Group 1C, 24 h, 50 mg/kg
  Plasma total radioactivity concentration: 0.515 μg Equivalents/mL and 0.759 μg Equivalents/mL and 0.553 μg Equivalents/mL and 0.453 μg Equivalents/mL
[2]; IV 50 mg/kg
  AUC0-24 of plasma total radioactivity: 36.000 μg equivalents · h/mL
[2]; PO 100 mg/kg, 0 h (pre-dose)
  Plasma total radioactivity concentration, Mean: 0.000 μg Equivalents/mL
[2]; PO 100 mg/kg, 0.083 h
  Plasma total radioactivity concentration, Mean: 0.283 μg Equivalents/mL
[2]; PO 100 mg/kg, 0.25 h
  Plasma total radioactivity concentration, Mean: 0.346 μg Equivalents/mL
[2]; PO 100 mg/kg, 0.5 h
  Plasma total radioactivity concentration, Mean: 0.316 μg Equivalents/mL
[2]; PO 100 mg/kg, 0.75 h
  Plasma total radioactivity concentration, Mean: 0.315 μg Equivalents/mL
[2]; PO 100 mg/kg, 4 h
  Plasma total radioactivity concentration, Mean: 0.625 μg Equivalents/mL
[2]; PO 100 mg/kg, 6 h
  Plasma total radioactivity concentration, Mean: 1.331 μg Equivalents/mL
[2]; PO 100 mg/kg, 10 h
  Plasma total radioactivity concentration, Mean: 0.622 μg Equivalents/mL
[2]; PO 100 mg/kg, 24 h
  Plasma total radioactivity concentration, Mean: 0.399 μg Equivalents/mL
[2]; PO 100 mg/kg, Group 2A, 0.25 h, 100 mg/kg
  Plasma total radioactivity concentration: 0.216 μg Equivalents/mL and 0.433 μg Equivalents/mL and 0.474 μg Equivalents/mL and 0.260 μg Equivalents/mL
[2]; PO 100 mg/kg, Group 2B, 0 h (pre-dose)
  Plasma total radioactivity concentration: 0.000 μg Equivalents/mL
[2]; PO 100 mg/kg, Group 2B, 0.75 h, 100 mg/kg
  Plasma total radioactivity concentration: 0.346 μg Equivalents/mL and 0.327 μg Equivalents/mL and 0.331 μg Equivalents/mL and 0.256 μg Equivalents/mL
[2]; PO 100 mg/kg, Group 2B, 4 h, 100 mg/kg
  Plasma total radioactivity concentration: 0.578 μg Equivalents/mL and 0.618 μg Equivalents/mL and 0.675 μg Equivalents/mL and 0.630 μg Equivalents/mL
[2]; PO 100 mg/kg, Group 2B, 6 h, 100 mg/kg
  Plasma total radioactivity concentration: 1.157 μg Equivalents/mL and 1.163 μg Equivalents/mL and 1.522 μg Equivalents/mL and 1.480 μg Equivalents/mL
[2]; PO 100 mg/kg, Group 2C, 0.083 h, 100 mg/kg
  Plasma total radioactivity concentration: 0.228 μg Equivalents/mL (2×) and 0.394 μg Equivalents/mL and 0.596 μg Equivalents/mL
[2]; PO 100 mg/kg, Group 2C, 0.5 h, 100 mg/kg
  Plasma total radioactivity concentration: 0.236 μg Equivalents/mL and 0.335 μg Equivalents/mL and 0.378 μg Equivalents/mL and 0.408 μg Equivalents/mL
[2]; PO 100 mg/kg, Group 2C, 10 h, 100 mg/kg
  Plasma total radioactivity concentration: 0.806 μg Equivalents/mL and 0.555 μg Equivalents/mL and 0.506 μg Equivalents/mL and 0.511 μg Equivalents/mL
[2]; PO 100 mg/kg, Group 2C, 24 h, 100 mg/kg
  Plasma total radioactivity concentration: 0.450 μg Equivalents/mL and 0.303 μg Equivalents/mL and 0.458 μg Equivalents/mL and 0.384 μg Equivalents/mL
[2]; PO 100 mg/kg
  AUC0-24 of plasma total radioactivity: 15.445 μg equivalents · h/mL
